Publication PMC7822874, “Chemoprotective antimalarials identified through quantitative high-throughput screening of Plasmodium blood and liver stage parasites” (Scientific Reports, 2021)

System: Plasmodium falciparum Dd2 asexual blood stage parasites
Experiment: microbe, parasite or virus in culture
Design: species or system Plasmodium falciparum Dd2 in human erythrocytes; single determination (one 11-point concentration-response curve)
Settings: Plasmodium falciparum, DD2, Erythrocyte, 72 h; read-out: AC50

Point of comparison: `COc1ccc2nc3oc(C(=O)N4CC(C)CC(C)C4)cc3cc2c1` (stereo not drawn) [MLS000912759-01], AC50 8.41 µM. Against it:
- COC(=O)[C@@H]1Cc2ncn(Cc3ccc(OC)cc3)c2CN1[S+](C)(=O)[O-] [NCGC00401682-01] — 2.3-fold higher, 19.3 µM
- COc1ccc(NC(=O)c2ccc(-c3nnc4ccc(NC(=O)C5CC5)cn34)cc2)cc1 [NCGC00429845-01] — 3.2-fold lower, 2.66 µM
- Clc1ccc(C(Cn2ccnc2)OCc2csc3c(Cl)cccc23)c(Cl)c1 (stereo not drawn) [MLS002154122-01] — 3.5-fold lower, 2.37 µM
- Cc1nc(-c2ccc(F)cc2)n(CC(=O)Nc2cccc(Cl)c2)c(=O)c1CCO [NCGC00470975-01] — 1.8-fold higher, 15 µM
- O=C(Nc1cccnc1)c1cn(-c2ccccc2)nc1-c1cccs1 [MLS000081870-01] — 3.5-fold lower, 2.37 µM
- COc1ccc(O)c(C(=O)c2cnc3c(c2)c(-c2ccc(F)cc2)c(C#N)c(=O)n3C)c1 [MLS001003111-01] — within 1.5-fold, 5.96 µM
- CC(C)C[C@@]12C(=O)N(c3cccc(Br)c3)C(=O)N1[C@H](c1ccc(F)cc1)[C@@H]1C(=O)N(C3CCCCC3)C(=O)[C@@H]12 [MLS001074979-01] — within 1.5-fold, 7.5 µM
- COc1ccc(-c2ccc3ncc(Nc4cccc(C(F)(F)F)c4)n3n2)cn1 [NCGC00412495-01] — within 1.5-fold, 12.2 µM
- Cc1ccccc1Oc1nc(-c2ccccn2)nc2ccccc12 [MLS000769500-01] — within 1.5-fold, 6.68 µM
- Cc1cc(CN2CCC(CO)(Cc3ccccc3Cl)CC2)cc(C)c1O [NCGC00426527-01] — 2-fold higher, 16.8 µM
- COc1cccc(CC(=O)N2CCCC(CN3CCCC3)CC2)c1 (stereo not drawn) [NCGC00456752-01] — 1.8-fold higher, 15 µM
- COCCN1C(=O)c2ccccc2C(C(=O)Nc2nc3ccccc3[nH]2)C12CCCC2 (stereo not drawn) [NCGC00423488-01] — 2-fold lower, 4.22 µM
- COc1ccc(-c2ccccc2NC(=O)C2CCCN(Cc3c(O)cccc3OC)C2)cc1 (stereo not drawn) [NCGC00425458-01] — 4-fold lower, 2.11 µM
- COc1ccc2c(c1)OC(C)(C)[C@@H](c1ccccc1)[C@@H]2c1ccc(OCCN2CCCC2)cc1 [NCGC00181100-01] — within 1.5-fold, 6.68 µM
- CCN(c1ccccc1)[S+](=O)([O-])c1cc(Br)cc2c1N(C(=O)C1CC1)CC2 [NCGC00104258-01] — 2.8-fold lower, 2.99 µM
- O=C(NCCN1CCCC1)C1CN([S+](=O)([O-])c2cccs2)CC12CCCCC2 (stereo not drawn) [NCGC00439935-01] — 1.6-fold higher, 13.3 µM
- Cc1oc2ccc(O)c(CN3CCN(Cc4ccccc4)CC3)c2c1C(=O)Nc1cccc(Cl)c1C [NCGC00115656-01] — 14-fold lower, 0.596 µM
- Cc1nn(-c2ccc(C(C)(C)C)cc2)c(C)c1[C@@H]1C=C[C@@H](NC(=O)c2ccco2)C1 [NCGC00394638-01] — within 1.5-fold, 12.2 µM
- C=CCCC(CN1CCCC1)Oc1ccc(C(=O)N2CCCC2)cn1 (stereo not drawn) [NCGC00435125-01] — 1.6-fold higher, 13.3 µM
- COc1ccc(Oc2nc(-c3ccccn3)nc3ccccc23)cc1 [MLS000769536-01] — 2.8-fold lower, 2.99 µM
- CCCN1CCN(CCCNC(=O)c2ccc3c(c2)sc2nc(-c4ccc(OC)cc4)cn23)CC1 [NCGC00121829-01] — 1.8-fold lower, 4.73 µM
- O=c1nc(C2CCN(S(=O)(=O)/C=C/c3ccccc3)CC2)[nH]c2c1nnn2Cc1ccc(F)cc1 [MLS001229566-01] — 1.6-fold higher, 13.3 µM
- CCC1(N2CCN(C)CC2)CCN([S+](=O)([O-])c2ccccc2)C1 (stereo not drawn) [NCGC00472095-01] — within 1.5-fold, 6.68 µM
- Cc1sc2[nH]c(-c3ccccn3)nc(=O)c2c1-c1ccccc1 [MLS000760132-01] — 1.6-fold higher, 13.3 µM
- O=C(Nc1ccc2c(N3CCCCC3)ncnc2c1)c1ccc(F)c(F)c1 [NCGC00425519-01] — 1.8-fold lower, 4.73 µM
- CCN(CC)c1ccc(NC(=O)COc2ccccc2C#N)cc1S(=O)(=O)Nc1ccccc1OC [MLS000339599-01] — within 1.5-fold, 7.5 µM
- OCc1ccc(CN2CCCC(CCc3c(F)cccc3F)C2)o1 (stereo not drawn) [NCGC00426759-01] — 2-fold lower, 4.22 µM
- Cc1ccc(NC(=O)c2c(C)oc3ccc(O)c(CN(C)Cc4ccccc4)c23)c(C)c1 [NCGC00115687-01] — within 1.5-fold, 5.96 µM
- Cc1ccc([S+](=O)([O-])N2CCC3(CCN(Cc4cccs4)c4ccccc4O3)CC2)cc1 [NCGC00478057-01] — 2.2-fold higher, 18.8 µM
- Cc1cc(Nc2cc(Cl)cc(Cl)c2)nc(N)n1 [MLS000861564-01] — within 1.5-fold, 6.68 µM
- COc1ccc2cc1Nc1ccc(cc1)C[C@H](NCc1ccc(C)o1)C(=O)N(C)[C@H](C(=O)NCCC(C)C)C2 [NCGC00410286-01] — within 1.5-fold, 5.96 µM
- CCCn1c(=N)c(C(=O)NCc2ccc3c(c2)OCO3)cc2c(=O)n3cccc(C)c3nc21 [MLS001305712-01] — within 1.5-fold, 10.6 µM
- COc1ccccc1N1CCN(CCCNC(=O)c2cnn(-c3ccccc3Cl)c2C2CCN(C(=O)OC(C)(C)C)CC2)CC1 [NCGC00126752-01] — 3.5-fold lower, 2.37 µM
- COc1cccc(-c2cc(C(=O)Nc3ccncc3)c3ccccc3n2)c1 [MLS001125696-01] — within 1.5-fold, 6.68 µM
- Cc1cc2c(c3oc(=O)c4ccccc4c13)CN(Cc1ccc(F)cc1)CO2 [NCGC00116338-01] — 3.2-fold lower, 2.66 µM
- COc1cccc(C(=O)N2CCC(N3C[C@H](O)C[C@H]3C(=O)N3CCc4ccccc4C3)CC2)c1 [NCGC00460061-01] — the same, 8.41 µM
- c1ccc(-c2nc(-c3ccncc3)no2)c(OC2CCN(C3CCCC3)C2)c1 (stereo not drawn) [NCGC00458106-01] — 1.8-fold higher, 15 µM
- Fc1cccc(CC2CCOC3(CCNCC3)C2)c1 (stereo not drawn) [NCGC00470522-01] — 1.6-fold higher, 13.3 µM
- COCCN1Cc2ccc(NCC(C)C)nc2C(C)(C(=O)Nc2ccncc2)C1 (stereo not drawn) [NCGC00414482-01] — 2.6-fold higher, 21.7 µM
- Cn1nc(C2CCCCC2)cc1[C@H]1CN2CC[C@H]1C[C@@H]2CNC(=O)c1cccs1 [NCGC00399662-01] — 1.6-fold higher, 13.7 µM
- CCN1CCN(C(=O)c2c(C)nn(-c3ccc(F)cc3)c2-n2cccc2)CC1 [NCGC00125054-01] — within 1.5-fold, 9.44 µM
- Cc1occc1C(=O)N1CCN(C(c2ccccc2)c2ccccc2)CC1 [MLS000089076-01] — within 1.5-fold, 10.6 µM
- CCc1nc(NC(=O)C2c3ccccc3C(=O)N(CCOC)C23CCCC3)sc1C (stereo not drawn) [NCGC00423528-01] — within 1.5-fold, 5.96 µM
- COc1cc(NC(=O)c2ccc(N)nc2)cc(C(=O)Nc2cccc(C(F)(F)F)c2)c1 [MLS003105961-01] — 1.6-fold lower, 5.31 µM
- CC1=C(C(=O)Nc2ccccc2)C(c2cc(Br)ccc2F)n2ncc(C(=O)Nc3ccccc3)c2N1 (stereo not drawn) [NCGC00126266-01] — 5-fold lower, 1.68 µM
- COCCOc1ccnc(-c2noc([C@@H]3CCCN3Cc3cn(C)c4ccccc34)n2)c1 [NCGC00394869-01] — 2.3-fold higher, 19.3 µM
- COc1ccc(-c2nn(-c3ccc(F)cc3)c(OC(C)=O)c2-c2ccc(NC(C)=O)cc2)cc1OC [NCGC00473193-01] — 1.8-fold higher, 15 µM
- CCCCNC(=O)c1onc(CSc2nc3ccccc3[nH]2)c1C(=O)NCCCC [MLS000561096-01] — 1.6-fold lower, 5.31 µM
- COC[C@H]1CCCN1[C@@H]1[C@H](O)[C@H](CO)O[C@@H]1CN(Cc1cccc(Cl)c1)Cc1cccc(Cl)c1 [NCGC00391669-01] — within 1.5-fold, 10.6 µM
- COc1ccc(CNC[C@H]2O[C@H](Cc3cc(-c4ccc(OC)cc4)on3)CC[C@@H]2O)cc1 [NCGC00401026-01] — within 1.5-fold, 10.6 µM
- C[N+](C)(C)CCN(Cc1ccc(Cl)cc1)c1ccccn1 [MLS000556881-01] — within 1.5-fold, 9.44 µM
- Cc1cn2nc(C(=O)Nc3ccc(N(C)C)cc3)cc2c(N(C)Cc2ccccc2)n1 [NCGC00454159-01] — 1.8-fold higher, 15 µM
- COc1cccc(Nc2ccc3c(n2)C(C)(C(=O)NC2CCC2)CN(C)C3)c1 (stereo not drawn) [NCGC00414508-01] — 1.8-fold higher, 15.3 µM
- O=C1CC(c2ccccc2)N(C(=O)CNC(=O)c2ccc3[nH]ccc3c2)CCCCCN1 (stereo not drawn) [NCGC00465493-01] — 1.8-fold higher, 15 µM
- Cc1ccc(-n2ncc(C(=O)N3CCN(c4cc(Cl)ccc4C)CC3)c2C2CCN(C(=O)OC(C)(C)C)CC2)cc1 [NCGC00126953-01] — the same, 8.41 µM
- CC(O)CNCCNCc1c(OCc2ccccc2)ccc2ccccc12 (stereo not drawn) [MLS000324858-01] — the same, 8.41 µM
- CCOc1cc(C(=O)Nc2ccc3nc(Nc4cccc(Cl)c4)cc(C)c3c2)cc(OCC)c1OCC [NCGC00124408-01] — 4.5-fold lower, 1.88 µM
- CC(C)C(=O)Nc1oc(-c2ccccc2)cc1C#N [MLS000721149-01] — within 1.5-fold, 6.68 µM
- CCOc1ccc(CCNC(=O)Nc2ccccc2)cc1OCC [MLS001197603-01] — 1.6-fold lower, 5.31 µM
- Clc1ccc(CN2CCOC[C@H](Oc3ccccc3)C2)cc1 [NCGC00393521-01] — 2-fold higher, 17.2 µM
- Cc1ccc(NC(=O)CC2SC(NC3CCCCC3)=NC2=O)cc1 (stereo not drawn) [MLS000700518-01] — within 1.5-fold, 11.9 µM
- COc1ccc2cc1Nc1ccc(cc1)C[C@H](NCc1ccc(C)o1)C(=O)N(C)[C@@H](C(=O)NCc1ccccc1)C2 [NCGC00410280-01] — 1.6-fold lower, 5.31 µM
- O=C(NCCc1c[nH]c2ccccc12)C(=O)Nc1cc2c3c(c1)CC(=O)N3CCC2 [MLS001361834-01] — within 1.5-fold, 10.6 µM
- CC1CCCN(Cc2c(O)ccc3c(=O)c(-c4ccc(Cl)cc4)c(C(F)(F)F)oc23)C1 (stereo not drawn) [NCGC00100583-01] — 10-fold lower, 0.841 µM
- COc1ccccc1-c1cc(C(=O)N2CCN(S(=O)(=O)c3ccc(C)cc3)CC2)[nH]n1 [MLS000924750-01] — within 1.5-fold, 7.5 µM
- CCCCn1c(=N)c(C(=O)NC2CCCCC2)cc2c(=O)n3cccc(C)c3nc21 [NCGC00101037-01] — 5.6-fold lower, 1.5 µM
- COc1cc2c(C(=O)N3CCN(c4cc(Cl)ccc4C)CC3)cn(CC(C)C)c(=O)c2cc1OC [NCGC00103751-01] — 1.8-fold higher, 15 µM
- O[C@@H]1C[C@@](CNCC2CCCC2)(COc2ccc(C(F)(F)F)cn2)C[C@@H]1O [NCGC00393440-01] — 1.6-fold lower, 5.31 µM
- CN(Cc1ccccc1)C(=O)[C@H]1O[C@H](CCN2CCN(c3ccc(F)cc3)CC2)CC[C@@H]1O [NCGC00401502-01] — within 1.5-fold, 5.96 µM
- CC(C)(C)c1ccc(C(=O)N2CCN(C(=O)c3nnn4c3COC(c3ccccc3)C4)CC2)cc1 (stereo not drawn) [NCGC00449161-01] — within 1.5-fold, 10.6 µM
- CCc1ccc(CN2CCN(Cc3cc(Br)ccc3O)CC2)cc1 [MLS000673664-01] — 4-fold lower, 2.11 µM
- NC(=O)c1cccc2nc([C@H]3CCN(Cc4ccccn4)C3)[nH]c12 [NCGC00396190-01] — 5.5-fold lower, 1.53 µM
- CC(=O)c1ccc(N2CCN(c3nc4c([S+](=O)([O-])c5ccccc5)nnn4c4ccc(Cl)cc34)CC2)cc1 [NCGC00112340-01] — 2.5-fold lower, 3.35 µM
- CCC(CC)c1cc([C@H]2CN3CC[C@H]2C[C@@H]3CNC(=O)c2ccc(C)cc2)nc(-c2ccncc2)n1 [NCGC00400216-01] — within 1.5-fold, 10.6 µM
- CCOc1ccc(CN2C(=O)c3ccccc3Sc3ccc(C(=O)N4CCC5(CC4)OCCO5)cc32)cc1 [NCGC00108218-01] — 2-fold lower, 4.22 µM
- COC(=O)C1=C(c2ccc(-c3ccccc3)c(F)c2)C[C@@H]2CC[C@H]1N2C(=O)NCc1cccc2ccccc12 [MLS002302696-01] — within 1.5-fold, 10.6 µM
- CCc1cc(=O)oc2cc(C)cc(OCC(=O)C(C)(C)C)c12 [MLS000666007-01] — within 1.5-fold, 11.9 µM
